From EP0666847B1 (priority 1993, dated 1995) come the findings set out here.

Usually pKi stands for −log10 of the Ki, conventionally taken in molar units. In general, pEC50 refers to −log10 of the EC50, conventionally taken in molar units.

The target of test [1] is T1, 5-HT1Dβ receptor (Homo sapiens, UniProt P28222).
T1 construct: expressed in transfected cells
In words: biochemical. Type of test: binding. The settings on record: for 5-HT1Dβ/5HT1A: selectivity ratio, 5-HT1A binding with 3H-8-OH-DPAT, 5-HT1Dβ with 3H-5HT; for pKi: 3H-5HT, membranes of recombinant cells, 15 minute incubation at 37°C.
Experimental: Increasing levels of the test compound were incubated with the radioligand and the membrane homogenates prepared from the recombinant cells. After a 15 minute incubation at 37°C, the incubation was terminated by vacuum filtration. The filters were washed with buffer and the filters were counted for radioactivity using liquid scintillation spectrometry.

The target in test [2] is T1, 5-HT1Dβ receptor. In words: Inhibition of forskolin-stimulated adenylate cyclase (cAMP radioimmunoassay) in 5-HT1Dβ-presenting CHO cells. Type of test: cell-based.
Experimental: CAMP levels were determined using a radioimmunoassay kit containing antibody specific for cAMP and radioiodinated cAMP. The amount of the compound that inhibited 50% of the forskolin-stimulated adenylate cyclase activity was determined from the inhibition curve data subjected to computer assisted analysis (Figure 1).

Structures are written as SMILES. pEC50, pKi: −log10 of the molar value. Counter-ions that a name gives are not always drawn.

T1 sequence (P28222 whole entry): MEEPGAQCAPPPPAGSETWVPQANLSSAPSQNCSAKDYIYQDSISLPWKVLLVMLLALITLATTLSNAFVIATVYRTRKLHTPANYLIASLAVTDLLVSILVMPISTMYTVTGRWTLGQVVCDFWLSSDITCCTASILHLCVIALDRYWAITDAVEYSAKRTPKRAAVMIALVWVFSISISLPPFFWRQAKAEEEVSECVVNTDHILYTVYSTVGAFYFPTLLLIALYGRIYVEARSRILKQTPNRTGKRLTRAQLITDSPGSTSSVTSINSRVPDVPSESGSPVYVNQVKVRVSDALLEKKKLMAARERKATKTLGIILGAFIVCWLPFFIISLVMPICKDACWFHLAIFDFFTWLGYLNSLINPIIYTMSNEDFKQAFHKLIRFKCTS

On to `CCCCCCCCCOc1ccc2[nH]cc(CCN)c2c1` [Example 4, 3-(2-aminoethyl)-5-nonyloxyindole oxalate], for which the 5-HT1Dβ/5HT1A at 5-HT1Dβ receptor [1] is on record as 260.

As to `Cl.NCCc1c[nH]c2ccc(OCCCCCCCCO)cc12` [Example 5, 3-(2-aminoethyl)-5-(8-hydroxyoctyloxy)-indole hydrochloride], on 5-HT1Dβ receptor [1], the negative logarithm of the Ki (pKi) was 9.52 and the 5-HT1Dβ/5HT1A is 119. At 5-HT1Dβ receptor [2], this molecule showed a pEC50 of 6.70. Further, on 5-HT1Dβ receptor [2] (CHO, read-out: % Inhib. cAMP), the inhibition at 0.001 µM was 0%, the inhibition at 0.01 µM was found to be 11%, the inhibition at 0.1 µM was 33% and the inhibition at 1 µM worked out at 92%.

For the molecule `CCOCCCCCCOc1ccc2[nH]cc(CCN)c2c1` [Example 8, 3-(2-aminoethyl)-5-(6-ethyloxyhexyloxy)-indole hydrochloride], on 5-HT1Dβ receptor [1], the pKi is 9.40 and the 5-HT1Dβ/5HT1A was 180.

With `CCCCOCCCCOc1ccc2[nH]cc(CCN)c2c1` [Example 9, 3-(2-aminoethyl)-5-(4-butyloxybutyloxy)-indole hydrochoride], on 5-HT1Dβ receptor [1], the pKi is 8.60 and the 5-HT1Dβ/5HT1A is recorded as 30.
